Data: the NIST ThermoML archive (doi:10.1021/je900799e)

Assay: molar heat capacity at constant pressure
Conditions: Liquid, metal-bellows calorimeter

F/C=C/C(F)(F)F [trans-1,3,3,3-tetrafluoropropene]
molar heat capacity at constant pressure [J/K/mol]
Conditions | 310 K | 320 K | 330 K | 340 K | 350 K | 360 K | 370 K
2000 kPa | 165.36 | 168.78 | 175.62 | 188.17 | 206.42 | – | –
3000 kPa | 160.8 | 164.22 | 169.92 | 179.05 | 192.73 | 214.4 | 272.56
4000 kPa | 157.38 | 160.8 | 166.5 | 169.92 | 182.47 | 195.01 | 224.66
5000 kPa | 155.1 | 158.52 | 161.94 | 164.22 | 174.48 | 183.61 | 204.13
